Test results taken from patent publication US20060258581A1, “Methods and composition for derepressions of IAP-inhibited caspase” (priority 2001, published 2006).
Like-named read-outs stand apart in the source and are kept apart here. Where a SMILES comes first, the peptide text is derived from it. Where no end group is shown, it is not given here. [ ]: non-standard residue; d: D form. The star is where a group is joined. Phe(4-Cl) = N[C@@H](Cc1ccc(Cl)cc1)C(=O)O; dPhe(4-Cl) = N[C@H](Cc1ccc(Cl)cc1)C(=O)O; dPhe(4-F) = N[C@H](Cc1ccc(F)cc1)C(=O)O; 2Nal = N[C@@H](Cc1ccc2ccccc2c1)C(=O)O; d2Nal = N[C@H](Cc1ccc2ccccc2c1)C(=O)O; Fmoc = O=C(OCC1c2ccccc2-c2ccccc21)*; 2Thi = N[C@@H](Cc1cccs1)C(=O)O; Cha = N[C@@H](CC1CCCCC1)C(=O)O

Columns and labels:
XIAP-inhibited caspase-3 = target: T1, XIAP-inhibited caspase-3 (Homo sapiens, UniProt P98170); test: IAP derepression assay: Ac-DEVD-AFC hydrolysis by caspase-3 in the presence of GST-XIAP; type: biochemical; settings: for Activity* (relative caspase-3 activity: Vmax in the presence of compound / Vmax of controls having caspase-3 and XIAP): XIAP derepression assay; for reversing XIAP-mediated suppression of caspase 3: 50 μg/ml, full length XIAP; for activity in the caspase derepression assay using full length XIAP: in words
T1 construct: in a caspase derepression assay using full length XIAP; made in house; host or cells: bacteria
Protocol: The ratio of Vmax for hydrolysis of Ac-DEVD-AFC in the presence and absence of the candidate mixture was calculated and used to identify those that contain an agent that derepresses an IAP-inhibited caspase.
Each mixture was aliquoted in a 25 microliter volume and in duplicate to a well of a 96 well microtiter plate. […] Fluorescence of liberated AFC was immediately detected from each well for 30 minutes at 30 second intervals. The Vmax for hydrolysis of AC-DEVD-AFC from each well was measured using the softmax software package.

Jurkat leukemia cells = test: Jurkat leukemia cell death, Annexin V/propidium iodide flow cytometry; type: cell-based; settings: for cells killed: one day treatment
Protocol: The following assay was used to test the ability of individual compounds from the TPI 1396 and TPI 1391 libraries to induce apoptosis of cultured tumor cell lines. Each of the compounds listed in Table IX was individually added to Jurkat leukemia cells (6.25×10^5 cells/mL) in RPMI containing 2.5% FBS at various concentrations for 20 hours. After incubation, cells were washed and stained with FITC-conjugated Annexin V antibody and propidium iodide (Biovision; Mountain View, Calif.). Cells were incubated for 20 minutes at room temperature in the dark and fluorescence was measured by flow cytometry (FACScan, Immunocytometry system; Becton-Dickinson; San Jose, Calif.). Cells staining positive for Annexin V were deemed non-viable.
The TPI I396-34 and TPI 1391-28 compounds were further tested as set forth below.

XIAP = XIAP (Homo sapiens, UniProt P98170); test: SMAC binding/competition assay: biotinylated SMAC 7-mer on NeutrAvidin plates, GST-XIAP detected by anti-GST; settings: in words
Protocol: Peptide compounds containing unnatural amino acids in the 792 series, 792-33 and 792-35 (see FIG. 12 and 20 and Example XI), and an active compound in the TPI 1332 series, TPI 1332-69, were tested for binding activity in the SMAC binding assay as described above in Example X. For this assay, biotinylated SMAC 7-mer peptide (50 ng) was bound to 96 well plates coated with NeutrAvidin (Pierce, Rockford, Ill.) at 1 mg/ml in 100 μl per well of 50 mM HEPES pH 7.4, 100 mM NaCl 1 mM EDTA, 10% sucrose, 0.1% CHAPS, 10 mM DTT.

[1] = system: ALVA31 prostate cancer cells; test: ALVA31 prostate cancer cell viability (XTT dye-reduction, trypan blue); type: cell-based; settings: 24 hrs; for cell viability, compound alone: peptides 40 μM, VP-16 100 μM; for tumor cell killing, combination with VP-16: peptide 40 μM with VP-16 100 μM
Protocol: The in vivo effects of TPI 792-33 or TPI 792-35, either individually or in combination with the cytotoxic anticancer drug VP-16 (etoposide), on derepression of XIAP-inhibited caspase and viability of ALVA31 cells was determined as follows. ALVA31 prostate cancer cells were seeded onto 96 well plates (10^4 cells/well) in 100 μL RPMI containing 2.5% fetal bovine serum (FBS). […] After another 24 hrs-incubation, cell viability was measured by the XTT dye-reduction assay (Roche, Molecular Biochemicals; Indianapolis, Ind.) and trypan blue dye exclusion assay.

full length XIAP = full length XIAP (Homo sapiens, UniProt P98170); test: Potency of IAP antagonists in vitro (Table VIII; caspase derepression / SMAC competition with full length XIAP); settings: for Relative Potency (fold versus SMAC peptide): SMAC AVPI tetrapeptide = 1.0; for EC50: amount of compound necessary to restore caspase-3 activity to 50% of Vmax
[2] = system: normal bone marrow mononuclear cells; test: Normal bone marrow mononuclear cells versus Jurkat, Annexin V, 20 hours; type: cell-based; settings: 5 μM
Protocol: After incubation, cells were washed, stained with FITC-conjugated Annexin V antibody and propidium iodide, and fluorescence measured by flow cytometry as described above.

full length XIAP, sequence (P98170 whole entry): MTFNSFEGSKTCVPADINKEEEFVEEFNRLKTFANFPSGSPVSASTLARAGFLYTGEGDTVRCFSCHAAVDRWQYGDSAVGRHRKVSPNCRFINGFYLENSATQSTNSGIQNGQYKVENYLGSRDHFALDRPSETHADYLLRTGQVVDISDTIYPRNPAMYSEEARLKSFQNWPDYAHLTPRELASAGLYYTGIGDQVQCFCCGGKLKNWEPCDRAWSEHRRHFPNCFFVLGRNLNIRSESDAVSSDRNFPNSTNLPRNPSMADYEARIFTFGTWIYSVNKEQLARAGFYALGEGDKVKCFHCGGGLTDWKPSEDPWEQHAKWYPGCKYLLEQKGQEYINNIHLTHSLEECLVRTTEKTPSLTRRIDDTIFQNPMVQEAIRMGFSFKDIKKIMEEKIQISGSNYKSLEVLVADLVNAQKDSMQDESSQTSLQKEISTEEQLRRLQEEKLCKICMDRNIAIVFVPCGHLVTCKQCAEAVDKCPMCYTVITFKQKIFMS
T1 sequence (P98170 whole entry): as above
XIAP, sequence (P98170 whole entry): as above

Compound | LC (lowest concentration with a ratio of 2 or higher in the derepression assay) (XIAP-inhibited caspase-3; tested at 0.4, 2, 10 and 50) [µg/mL] | % nonviable cells (Jurkat leukemia cells; 1 µM) [%] | % nonviable cells (Jurkat leukemia cells; 10 µM) [%] | % nonviable cells (Jurkat leukemia cells; 25 µM) [%] | % nonviable cells (Jurkat leukemia cells; 50 µM) [%] | other results
O=C(NC[C@@H](CC1CCCCC1)N(C[C@@H]1CCCN1CCC12CC3CC(CC(C3)C1)C2)C(=O)Nc1ccccc1)Nc1ccccc1 [TPI 1396-35] | – | – | – | – | – | Activity* (relative caspase-3 activity: Vmax in the presence of compound / Vmax of controls having caspase-3 and XIAP) (XIAP-inhibited caspase-3): 2.5
CCCC[C@@H](CNCc1ccccc1)N1C[C@@H](CC(C)C)N(CC2CCC(C(C)(C)C)CC2)C(=O)C1=O (some centres unmarked) [TPI 1391-5] | – | 17 | 36 | 88 | 88 | –
(L-Cha)-(D-Nal)-(L-Trp)-(L-ThiAla) ([Cha][d2Nal]W[2Thi]) [TPI 1332-41] | – | – | – | – | – | reversing XIAP-mediated suppression of caspase 3 (XIAP-inhibited caspase-3): Active
CCCC[C@H](CNCc1ccccc1)N1C[C@@H](CC(C)C)N(CC2CCC(C(C)(C)C)CC2)C(=O)C1=O (some centres unmarked) [TPI 1391-17] | – | 13 | 45 | 88 | 91 | % nonviable cells (Jurkat leukemia cells; 5 µM): 25%
CCCC[C@@H](CNCc1ccccc1)N1C[C@@H](CC(C)C)N(CC(C)c2ccc(CC(C)C)cc2)C(=O)C1=O (some centres unmarked) [TPI 1391-1] | – | 18 | 20 | 69 | 91 | –
(L-Ala)-(D-Trp)-(L-Trp)-(L-ThiAla) (A[dW]W[2Thi]) [TPI 1332-47] | – | – | – | – | – | reversing XIAP-mediated suppression of caspase 3 (XIAP-inhibited caspase-3): Active
COc1ccc(CCN(CCCC[C@@H](CN(C(=O)Nc2ccccc2)[C@@H](CNC(=O)Nc2ccccc2)CC2CCCCC2)N(C)C(=O)Nc2ccccc2)C(=O)Nc2ccccc2)cc1 [TPI 1396-25] | – | – | – | – | – | Activity* (relative caspase-3 activity: Vmax in the presence of compound / Vmax of controls having caspase-3 and XIAP) (XIAP-inhibited caspase-3): 1.6
CC(C)Cc1ccc(C(C)CN2C(=O)C(=O)N([C@H](CNCc3ccccc3)Cc3ccc4ccccc4c3)C[C@H]2CC(C)C)cc1 (some centres unmarked) [TPI 1391-25] | – | 16 | 60 | 90 | 87 | –
COc1ccc(CCN(C(=O)Nc2ccccc2)[C@H](Cc2ccccc2)CN(C(=O)Nc2ccccc2)[C@@H](CNC(=O)Nc2ccccc2)CC2CCCCC2)cc1 [TPI 1396-31] | – | – | – | – | – | Activity* (relative caspase-3 activity: Vmax in the presence of compound / Vmax of controls having caspase-3 and XIAP) (XIAP-inhibited caspase-3): 1.3
O=C1C(=O)N([C@H](CNCc2ccccc2)Cc2ccc3ccccc3c2)C[C@H](Cc2ccc3ccccc3c2)N1CCc1cccc(C(F)(F)F)c1 [TPI 1391-34] | – | – | – | – | – | Relative Potency (fold versus SMAC peptide) (full length XIAP): 3.3; EC50 (full length XIAP): 39.4 µM
CC(C)C[C@@H]1CN([C@H](CNCc2ccccc2)Cc2ccc3ccccc3c2)C(=O)C(=O)N1CCc1cccc(C(F)(F)F)c1 [TPI 1391-28] | – | 19 | 55 | 87 | 91 | cells killed (Jurkat leukemia cells; 5 μM): about 45%; cells killed (Jurkat leukemia cells; 8 μM): ~80%; EC50 (Jurkat leukemia cells; one-day exposure, read-out: EC50 for killing Jurkat leukemia cells): ~6.5 µM; toxicity to normal bone marrow cells [2]: little toxicity; Relative Potency (fold versus SMAC peptide) (full length XIAP): 5; EC50 (full length XIAP): 25.1 µM
CCCCCCCN1C(=O)C(=O)N([C@H](CCCC)CNCc2ccccc2)C[C@@H]1Cc1ccc2ccccc2c1 [TPI 1391-21] | – | 16 | 44 | 91 | 94 | Relative Potency (fold versus SMAC peptide) (full length XIAP): 3.7; EC50 (full length XIAP): 33.6 µM
CCCC[C@@H](CNCc1ccccc1)N1C[C@@H](CC(C)C)N(CCc2cccc(C(F)(F)F)c2)C(=O)C1=O [TPI 1391-4] | – | 20 | 48 | 90 | 86 | –
(L-Ala)-(L-Trp)-(L-Trp)-(L-ThiAla) (AWW[2Thi]) [TPI 1332-1] | – | – | – | – | – | reversing XIAP-mediated suppression of caspase 3 (XIAP-inhibited caspase-3): Active

The next lines start with results.

LC (lowest concentration with a ratio of 2 or higher in the derepression assay) (XIAP-inhibited caspase-3; tested at 0.4, 2, 10 and 50) [µg/mL] | Compound | % nonviable cells (Jurkat leukemia cells; 1 µM) [%] | % nonviable cells (Jurkat leukemia cells; 10 µM) [%] | % nonviable cells (Jurkat leukemia cells; 25 µM) [%] | % nonviable cells (Jurkat leukemia cells; 50 µM) [%] | other results
2 | (L-ThiAla)-(Lys-εFmoc)-(L-pClPhe)-(pF-D-F) ([2Thi]K(Fmoc)[Phe(4-Cl)][dPhe(4-F)]) [TPI 792-22] | – | – | – | – | –
2 | (D-Nal)-(Lys-εFmoc)-(L-pClPhe)-(Lys-εFmoc) ([d2Nal]K(Fmoc)[Phe(4-Cl)]K(Fmoc)) [TPI 792-3] | – | – | – | – | –
2 | (D-Nal)-(L-Nal)-(D-Lys-εFmoc)-(Lys-εFmoc) ([d2Nal][2Nal][dK](Fmoc)K(Fmoc)) [TPI 792-17] | – | – | – | – | –
0.4 | N[C@@H](Cc1cccs1)C(=O)N[C@@H](Cc1ccc2ccccc2c1)C(=O)N[C@@H](Cc1ccc(Cl)cc1)C(=O)N[C@@H](CCCCNC(=O)OCC1c2ccccc2-c2ccccc21)C(=O)O [TPI 792-33, L-3-(2-thienyl)-alanyl-L-(2-naphthyl)-alanyl-L-p-chloro-phenylalanyl-L-(e-fluorenylmethyloxycarbonyl)-lysine] (H-[2Thi][2Nal][Phe(4-Cl)]K(Fmoc)-OH) | – | – | – | – | LC (lowest concentration with a ratio of 2 or higher in the derepression assay) (XIAP-inhibited caspase-3): 0.4 micrograms per milliliter; activity in the caspase derepression assay using full length XIAP (XIAP-inhibited caspase-3): activity; competition with XIAP binding to the SMAC peptide (SMAC competition assay) (XIAP): activity; cell viability, compound alone [1]: reduced viability of these prostate cancer cells by nearly half; tumor cell killing, combination with VP-16 [1]: more potent tumor cell killing compared to VP-16 alone; Relative Potency (fold versus SMAC peptide) (full length XIAP): 5.2
2 | (D-Nal)-(L-Nal)-(L-pClPhe)-(Lys-εFmoc) ([d2Nal][2Nal][Phe(4-Cl)]K(Fmoc)) [TPI 792-15] | – | – | – | – | –
2 | N[C@@H](Cc1cccs1)C(=O)N[C@@H](Cc1ccc2ccccc2c1)C(=O)N[C@H](CCCCNC(=O)OCC1c2ccccc2-c2ccccc21)C(=O)N[C@@H](CCCCNC(=O)OCC1c2ccccc2-c2ccccc21)C(=O)O [TPI 792-35, L-3-(2-thienyl)-alanyl, L-(2-naphthyl)-alanyl-D-(e-fluorenylmethyloxycarbonyl)-lysyl-L-(e-fluorenylmethyloxycarbonyl)-lysine] (H-[2Thi][2Nal][dK](Fmoc)K(Fmoc)-OH) | – | – | – | – | activity in the caspase derepression assay using full length XIAP (XIAP-inhibited caspase-3): activity; competition with XIAP binding to the SMAC peptide (SMAC competition assay) (XIAP): activity; cell viability, compound alone [1]: reduced viability of these prostate cancer cells by nearly half; tumor cell killing, combination with VP-16 [1]: more potent tumor cell killing compared to VP-16 alone; Relative Potency (fold versus SMAC peptide) (full length XIAP): 2.5
2 | (L-ThiAla)-(D-pClPhe)-(L-pClPhe)-(Lys-εFmoc) ([2Thi][dPhe(4-Cl)][Phe(4-Cl)]K(Fmoc)) [TPI 792-27] | – | – | – | – | –
2 | (L-ThiAla)-(Lys-εFmoc)-(D-Nal)-(Lys-εFmoc) ([2Thi]K(Fmoc)[d2Nal]K(Fmoc)) [TPI 792-19] | – | – | – | – | –
10 | (D-Nal)-(D-pClPhe)-(L-pClPhe)-(Lys-εFmoc) ([d2Nal][dPhe(4-Cl)][Phe(4-Cl)]K(Fmoc)) [TPI 792-9] | – | – | – | – | –
